Each compound was assayed against T1, Rat Plasma VAP-1 (Rattus norvegicus, UniProt O08590) (assay: (Ex vivo) rat plasma VAP-1 inhibition test after oral administration of the compound). Conditions: 3 hours after oral administration, SD male rats, read-out: inhibition ratio (plasma VAP-1, ex vivo).
T1 construct: from tissue; host or cells: plasma of SD male rats (7-12 weeks old) after oral dosing
T1 sequence (O08590 28-763 limits assumed): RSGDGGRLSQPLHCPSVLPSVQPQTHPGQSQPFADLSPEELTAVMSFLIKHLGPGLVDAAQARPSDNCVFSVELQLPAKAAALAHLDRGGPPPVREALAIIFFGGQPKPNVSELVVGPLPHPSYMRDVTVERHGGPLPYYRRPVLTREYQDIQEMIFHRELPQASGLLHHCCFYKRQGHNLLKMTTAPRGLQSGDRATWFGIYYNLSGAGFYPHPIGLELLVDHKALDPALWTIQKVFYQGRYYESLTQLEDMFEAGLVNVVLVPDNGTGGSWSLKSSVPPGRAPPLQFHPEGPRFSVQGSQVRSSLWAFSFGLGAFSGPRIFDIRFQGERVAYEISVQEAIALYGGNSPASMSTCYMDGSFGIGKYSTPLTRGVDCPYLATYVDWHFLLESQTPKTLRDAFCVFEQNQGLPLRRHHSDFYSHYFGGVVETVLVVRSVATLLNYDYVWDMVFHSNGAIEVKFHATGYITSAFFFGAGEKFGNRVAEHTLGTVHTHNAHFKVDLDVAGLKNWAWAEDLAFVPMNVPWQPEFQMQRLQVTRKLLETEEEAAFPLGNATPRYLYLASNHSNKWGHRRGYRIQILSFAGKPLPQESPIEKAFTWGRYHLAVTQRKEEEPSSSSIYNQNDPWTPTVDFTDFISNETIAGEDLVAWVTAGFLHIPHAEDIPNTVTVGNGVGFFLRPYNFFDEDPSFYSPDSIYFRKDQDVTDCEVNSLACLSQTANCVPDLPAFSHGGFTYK
Assay type: in vivo
Summary of the method: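 Male SD rats, 7–12 weeks, non-fasted, dosed orally at 0.3–10 mg/kg; jugular blood taken predose and 3, 8 and 24 h after dosing. Plasma incubated with 2.5 μM 14C-benzylamine for 3 h at 37 °C; extracted product counted by scintillation. Inhibition expressed relative to each animal's predose plasma activity.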
In the case of CON=C1CN(c2ncc(-c3cccc(COC(=O)NC(=N)N)c3F)cc2F)C1 [Example 36, 2-fluoro-3-{5-fluoro-6-[3-(methoxyimino)azetidin-1-yl]pyridin-3-yl}benzyl carbamimidoylcarbamate], the inhibition in vivo at 0.3 mg/kg was at least 50%.
Work on [2H]C([2H])([2H])ON=C1CN(c2ncc(-c3cccc(COC(=O)NC(=N)N)c3F)cc2F)C1 [Example 37, 2-fluoro-3-(5-fluoro-6-{3-[(methoxy-d3)imino]azetidin-1-yl}pyridin-3-yl)benzyl carbamimidoylcarbamate] yielded an inhibition in vivo at 0.3 mg/kg of at least 50%.
N=C(N)NC(=O)OCc1cccc(-c2cnc(N3CC(=NOCCC(O)CO)C3)c(F)c2)c1F (centres unmarked) [Example 95, 3-(6-{3-[(3,4-Dihydroxybutoxy)imino]azetidin-1-yl}-5-fluoropyridin-3-yl)-2-fluorobenzyl carbamimidoylcarbamate] showed an inhibition in vivo at 0.3 mg/kg of at least 50%.
N=C(N)NC(=O)OCc1cccc(-c2cnc(N3CC(=NOCC(CO)CO)C3)c(F)c2)c1F [Example 96, 2-Fluoro-3-{5-fluoro-6-[3-{[3-hydroxy-2-(hydroxymethyl)propoxy]imino}azetidin-1-yl]pyridin-3-yl}benzyl carbamimidoylcarbamate] showed an inhibition in vivo at 0.3 mg/kg of at least 50%.
Work on N=C(N)NC(=O)OCc1cccc(-c2cnc(N3CC(=NOCC(F)CO)C3)nc2)c1F (centres unmarked) [Example 102, 2-Fluoro-3-(2-{3-[(2-fluoro-3-hydroxypropoxy)imino]azetidin-1-yl}pyrimidin-5-yl)benzyl carbamimidoylcarbamate] yielded an inhibition in vivo at 0.3 mg/kg of at least 50%.

Reference: US10759781B2, “Substituted guanidine derivatives” (UBE INDUSTRIES, LTD., priority 2015, dated 2020)
